Measurements: ChEMBL document CHEMBL1128785, “Modifications of the MeBmt side chain of cyclosporin A” (Bioorg Med Chem Lett, 1995)

What was measured:
Format in all cases: functional
[1] = target: T1, Interleukin-2 (Mus musculus) (UniProt P04351); assay: Tested in vitro for inhibition of Interleukin-2 (IL-2) release; 100 times less active than cyclosporin A
T1 sequence (whole entry): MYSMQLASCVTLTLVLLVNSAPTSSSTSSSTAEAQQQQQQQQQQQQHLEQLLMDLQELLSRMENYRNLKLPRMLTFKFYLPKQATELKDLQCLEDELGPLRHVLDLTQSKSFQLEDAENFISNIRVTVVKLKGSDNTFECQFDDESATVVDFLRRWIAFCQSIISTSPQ

[2] = Tested in vitro for mixed Lymphocyte reaction; 100 times less active than cyclosporin A
[3] = target: T1, Interleukin-2 (Mus musculus); assay: Tested in vitro for inhibition of Interleukin-2 (IL-2) release; 2-3 times less active than compound 1
[4] = Tested in vitro for mixed Lymphocyte reaction; 2-3 times less active than compound 1

SMILES | Activity [1] | Activity [2] | Activity [3] | Activity [4]
CC[C@@H]1NC(=O)[C@H]([C@@H]2OC(C(C)=O)C[C@H]2C)N(C)C(=O)[C@H](C(C)C)N(C)C(=O)[C@H](CC(C)C)N(C)C(=O)[C@H](CC(C)C)N(C)C(=O)[C@@H](C)NC(=O)[C@H](C)NC(=O)[C@H](CC(C)C)N(C)C(=O)[C@H](C(C)C)NC(=O)[C@H](CC(C)C)N(C)C(=O)CN(C)C1=O (stereo not given in full) | 100 times less active than cyclosporin A | 100 times less active than cyclosporin A | – | –
CC[C@@H]1NC(=O)[C@H]([C@H](O)[C@H](C)C[C@@H]2C[C@H]2C)N(C)C(=O)[C@H](C(C)C)N(C)C(=O)[C@H](CC(C)C)N(C)C(=O)[C@H](CC(C)C)N(C)C(=O)[C@@H](C)NC(=O)[C@H](C)NC(=O)[C@H](CC(C)C)N(C)C(=O)[C@H](C(C)C)NC(=O)[C@H](CC(C)C)N(C)C(=O)CN(C)C1=O | – | – | 2-3 times less active than compound 1 | 2-3 times less active than compound 1
CC[C@@H]1NC(=O)[C@H]([C@@H]2O[C@]3(O)CC[C@@H]3C[C@H]2C)N(C)C(=O)[C@H](C(C)C)N(C)C(=O)[C@H](CC(C)C)N(C)C(=O)[C@H](CC(C)C)N(C)C(=O)[C@@H](C)NC(=O)[C@H](C)NC(=O)[C@H](CC(C)C)N(C)C(=O)[C@H](C(C)C)NC(=O)[C@H](CC(C)C)N(C)C(=O)CN(C)C1=O | 100 times less active than cyclosporin A | 100 times less active than cyclosporin A | – | –
CC[C@@H]1NC(=O)[C@H]([C@H](O[Si](C)(C)C(C)(C)C)[C@H](C)C[C@H]2OC23CC3)N(C)C(=O)[C@H](C(C)C)N(C)C(=O)[C@H](CC(C)C)N(C)C(=O)[C@H](CC(C)C)N(C)C(=O)[C@@H](C)NC(=O)[C@H](C)NC(=O)[C@H](CC(C)C)N(C)C(=O)[C@H](C(C)C)NC(=O)[C@H](CC(C)C)N(C)C(=O)CN(C)C1=O | 100 times less active than cyclosporin A | 100 times less active than cyclosporin A | – | –
CC=C=CC[C@@H](C)[C@@H](O)[C@H]1C(=O)N[C@@H](CC)C(=O)N(C)CC(=O)N(C)[C@@H](CC(C)C)C(=O)N[C@@H](C(C)C)C(=O)N(C)[C@@H](CC(C)C)C(=O)N[C@@H](C)C(=O)N[C@H](C)C(=O)N(C)[C@@H](CC(C)C)C(=O)N(C)[C@@H](CC(C)C)C(=O)N(C)[C@@H](C(C)C)C(=O)N1C | – | – | 2-3 times less active than compound 1 | 2-3 times less active than compound 1
